Assay type in all cases: cell-based
The target of one assay is T1, mouse NLRP3 (Mus musculus, UniProt Q8R4B8).
T1 construct: Blood was drawn from female CD1 mice (9 to 10 weeks) by cardiac puncture; from tissue; host or cells: whole blood of female CD1 mice, LPS-primed, ATP-stimulated
Nature of the assay: Mouse Whole Blood (mWB) NLRP3 Assay (IL-1β MSD). The following applies: CD1 mouse whole blood, LPS 1 μg/mL 5 h, ATP 5 mM; class symbols. How it is done: Reagents: The following reagents were used: blood collection tubes (Heparin); U-bottom 96-well tissue culture (Falcon 353077); HBSS for LPS, ATP and compound dilutions (Gibco 24020-117); and LPS, E. coli serotype 026:B6 (Sigma L-2654).
Mouse IL-1b MSD assay: Blood was drawn from female CD1 mice (9 to 10 weeks) by cardiac puncture. Blood was plated (135 μL) per well in 96-well U-bottom plates. 7.5 μL of 20× LPS (20 μg/mL, final concentration of 1 μg/mL) was added and mixed by gentle pipetting, and the mixture was incubated in a TC incubator for five hours. 7.5 μL of 20× compound or vehicle per well was added and mixed by gentle pipetting. Compounds were diluted 1/50 in HBSS to prepare a 20× dilution curve in 2% DMSO. The mixture was incubated for 30 minutes in a TC incubator with shaking (450 rpm). 5 μl of 31× ATP (155 mM, final concentration of 5 mM) was added and mixed by gentle pipetting. The mixture was incubated in a TC incubator for 30 minutes with shaking (450 rpm). The plate was centrifuged for 10 minutes at 800×g and ˜70 μL of plasma was removed. Plasma was frozen if required. Mouse IL-1b was analyzed with IL-1b MSD assay (K152TUK). […]
mWB IL-1β Assay: A represents an IC50 value <0.3 μM; B represents an IC50 value ≥0.3 μM and <0.5 μM; C represents an IC50 value ≥0.5 μM and <1.0 μM; D represents an IC50 value ≥1.0 μM.

Assay [1] has as its target T2, human NLRP3 (Homo sapiens, UniProt Q96P20). Nature of the assay: Human Whole Blood (hWB) NLRP3 Assay (IL-1β MSD). As to conditions: LPS 1 μg/ml 4.5 h, ATP 30 min, class symbols. The procedure: Human whole blood was drawn from healthy volunteers after obtaining written informed consent. Heparin lithium coated tubes were used to collect blood from volunteers. Blood samples were distributed on 96 well plates using 90 μl per well. Priming was performed by adding 5 μl of LPS (O26:B6; Sigma L-2654) at a final concentration of 1 μg/ml for 4.5 hours in a humidified incubator with 37° C., 5% CO2. Thirty minutes prior to NLRP3 activation, 5 μl of a 20× compound solution or vehicle (2% DMSO) was added to each well and plates were incubated on a shaker (450 rpm) in a humidified incubator with 37° C., 5% CO2. Activation was then performed by adding 3.3 μl of a 31× ATP solution per well. At the end of the 30 minutes stimulation, the plates were centrifuged (800 g, 10 min, room temperature) and the plasma from each well was frozen at −80° C. IL-1β levels in the supernatant were analyzed using a mesoscale discovery assay (MSD K151TUK) according to the manufacturers' instructions.
hWB IL-1β Assay: A represents an IC50 value <0.3 μM; B represents an IC50 value ≥0.3 μM and <0.5 μM; C represents an IC50 value ≥0.5 μM and <1.0 μM; D represents an IC50 value >1.0 μM.

For assay [2], the target named is T2, human NLRP3. Nature of the assay: Human PBMC NLRP3 Assay (IL-1β release). Also noted: Human PBMCs (Normal): iXCells Cat #10HU-003; host or cells: human PBMCs (normal donors), LPS-primed, nigericin-stimulated. The following applies: human PBMCs. The procedure:
Reagents: Human PBMCs (Normal): iXCells Cat #10HU-003; RPMI 1640 medium (ATCC modification): ThermoFisher Cat #A1049101 (Complete Media: 10% FBS, 1% Pen/Strep; Assay Media: 1% Pen/Strep; 75 cm^2 cell culture flask: Corning Cat #430641U; 96-well cell culture plates: VWR Cat #10062-900; LPS (E. coli 026:B6): Sigma Cat #L2654, stock 5 mg/mL in PBS; Nigericin sodium salt: Sigma Cat #N7143, stock 5 mg/mL (6.7 mM) in ethanol.
Cryopreserved PBMCs (10×10^6 cells/vial) were rapidly thawed in a 37° C. water bath for 2 min and transferred in 10 mL Complete Media. Cells were then centrifuged at 1200 RPM for 5 min, resuspended in 40 mL of Complete Media, transferred in a 75 cm^2 cell culture flask and incubated overnight at 37° C. with 5% CO2. The next day, PBMCs were centrifuged, resuspended in 30 mL Assay Media (˜3.3×10^5 cells/mL) and distributed at 100 μL/well in a 96-well cell culture plate. 50 μl of Assay Media containing 300 ng/ml of LPS was then added to each well except for the untreated control wells (50 μl Assay Media without LPS). Cells were then primed with LPS for 4 h at 37° C. with 5% CO2. A concentration response curve (CRC) was prepared of 500× test compound in 100% dimethyl sulfoxide (DMSO). The CRC was then diluted 1:25 in Assay Media and then further diluted 1:5 in Assay Media resulting in a final 4× CRC in 0.8% DMSO/Assay Media. 50 μL/well of 4× test compound CRC or vehicle (0.8% DMSO/Assay Media) was then transferred into each well and subsequently incubated for 30 min at 37° C. with 5% CO2. Cells were stimulated by adding 4 μL of 500 μM Nigericin, for 1 h at 37° C. with 5% CO2 Plates were then centrifuged at 1200 RPM for 5 min and 100 μl of the media was transferred to a clean 96-well storage plate and stored at −80° C. until analyzed. Cytokine measurements were performed using the mesoscale platform. Compounds were added 30 minutes before priming the cells with LPS when TNFα was required to be quantified in the cytokine panel to confirm selectivity.
Human PBMC NLRP3 Assay: A represents an IC50 value <0.3 μM; B represents an IC50 value ≥0.3 μM and <0.5 μM; C represents an IC50 value ≥0.5 μM and <1.0 μM; D represents an IC50 value >1.0 μM and <10 μM; E represents an IC50 value >10 μM.

[3] abbreviates: LPS priming 4 h, nigericin stimulation 1 h, class symbols.
Setting [4] is: LPS priming, nigericin stimulation, numeric values of Tables C1-C4.

T2 sequence (Q96P20 whole entry): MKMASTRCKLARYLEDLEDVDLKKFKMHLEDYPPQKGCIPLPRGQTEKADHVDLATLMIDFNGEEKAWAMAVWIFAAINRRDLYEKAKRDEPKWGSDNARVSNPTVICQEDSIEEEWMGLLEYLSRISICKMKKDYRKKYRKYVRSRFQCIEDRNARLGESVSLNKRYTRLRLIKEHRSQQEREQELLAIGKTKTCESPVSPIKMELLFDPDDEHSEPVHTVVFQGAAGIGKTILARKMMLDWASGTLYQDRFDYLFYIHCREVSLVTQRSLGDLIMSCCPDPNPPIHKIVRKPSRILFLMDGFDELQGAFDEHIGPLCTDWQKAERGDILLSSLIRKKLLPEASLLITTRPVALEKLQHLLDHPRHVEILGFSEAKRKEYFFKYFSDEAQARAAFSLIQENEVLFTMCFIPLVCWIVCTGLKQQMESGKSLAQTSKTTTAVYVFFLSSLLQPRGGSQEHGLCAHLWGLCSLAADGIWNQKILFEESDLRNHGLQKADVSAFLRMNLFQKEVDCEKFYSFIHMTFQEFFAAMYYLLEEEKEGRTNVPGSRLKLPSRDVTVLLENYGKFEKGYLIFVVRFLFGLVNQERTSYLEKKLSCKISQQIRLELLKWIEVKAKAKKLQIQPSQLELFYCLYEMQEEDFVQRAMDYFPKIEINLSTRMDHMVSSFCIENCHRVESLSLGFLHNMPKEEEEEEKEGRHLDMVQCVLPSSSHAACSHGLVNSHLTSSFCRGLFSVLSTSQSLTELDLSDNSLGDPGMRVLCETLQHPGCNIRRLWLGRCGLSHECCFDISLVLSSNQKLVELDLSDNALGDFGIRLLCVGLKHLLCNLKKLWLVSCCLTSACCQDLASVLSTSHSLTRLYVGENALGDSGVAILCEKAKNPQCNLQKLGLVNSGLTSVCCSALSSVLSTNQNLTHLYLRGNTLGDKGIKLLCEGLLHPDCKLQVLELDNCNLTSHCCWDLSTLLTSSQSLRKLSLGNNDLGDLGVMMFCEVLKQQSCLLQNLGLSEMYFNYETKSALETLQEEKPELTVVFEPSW
T1 sequence (Q8R4B8 whole entry): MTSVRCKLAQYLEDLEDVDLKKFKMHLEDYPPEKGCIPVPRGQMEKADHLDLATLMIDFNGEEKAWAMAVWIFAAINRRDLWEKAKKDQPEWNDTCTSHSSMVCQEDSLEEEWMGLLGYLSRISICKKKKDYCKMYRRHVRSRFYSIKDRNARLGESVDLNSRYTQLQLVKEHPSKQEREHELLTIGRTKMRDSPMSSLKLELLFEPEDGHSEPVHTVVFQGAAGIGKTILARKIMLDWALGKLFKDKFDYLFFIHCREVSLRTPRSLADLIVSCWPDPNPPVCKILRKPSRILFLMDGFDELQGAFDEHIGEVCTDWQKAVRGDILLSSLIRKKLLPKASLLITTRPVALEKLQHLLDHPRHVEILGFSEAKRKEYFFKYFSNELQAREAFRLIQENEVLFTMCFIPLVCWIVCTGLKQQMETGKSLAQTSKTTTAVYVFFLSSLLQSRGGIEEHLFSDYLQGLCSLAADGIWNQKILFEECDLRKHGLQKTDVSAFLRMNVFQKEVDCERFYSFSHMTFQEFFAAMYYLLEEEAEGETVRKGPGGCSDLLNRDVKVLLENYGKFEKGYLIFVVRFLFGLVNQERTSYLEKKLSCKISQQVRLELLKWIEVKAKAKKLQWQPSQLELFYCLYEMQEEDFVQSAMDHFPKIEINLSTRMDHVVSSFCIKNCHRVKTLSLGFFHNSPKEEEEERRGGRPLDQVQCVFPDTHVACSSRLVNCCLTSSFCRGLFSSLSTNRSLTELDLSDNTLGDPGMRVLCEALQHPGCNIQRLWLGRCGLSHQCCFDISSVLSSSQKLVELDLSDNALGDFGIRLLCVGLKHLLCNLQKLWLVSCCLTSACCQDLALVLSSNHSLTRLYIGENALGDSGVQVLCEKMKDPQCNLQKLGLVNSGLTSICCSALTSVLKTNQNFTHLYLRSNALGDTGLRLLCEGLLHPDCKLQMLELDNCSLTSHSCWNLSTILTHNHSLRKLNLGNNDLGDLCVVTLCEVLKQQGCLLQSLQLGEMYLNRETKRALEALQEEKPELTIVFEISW

Regarding `C[C@@H](CC(=O)O)[C@H](NC(=O)CN1C(=O)C(C)(C)c2c1ccc(C1CC1)c2F)C1CC1` (single isomer, unassigned) [Compound 60A*], the IC50 at mouse NLRP3 was below 300 nM; against human NLRP3 [1] it was 500 to 1000 nM; against human NLRP3 [2] (setting [3]) it was below 300 nM.
With `CC1(C)C(=O)N(CC(=O)NCCCc2nnn[nH]2)c2ccc(Br)cc21` [Compound 1, N-(3-(1H-tetrazol-5-yl)propyl)-2-(5-bromo-3,3-dimethyl-2-oxoindolin-1-yl)acetamide], the half-inhibitory concentration (IC50) against mouse NLRP3 is below 300 nM; on human NLRP3 [1], above 1000 nM; against human NLRP3 [2] (setting [3]), below 300 nM.
Consider `CC1(C)C(=O)N(CC(=O)NCCCC(=O)O)c2ccc(Br)cc21` [Compound 2, 4-(2-(5-bromo-3,3-dimethyl-2-oxoindolin-1-yl)acetamido)butanoic acid], for which the 50% inhibitory concentration (IC50) was below 300 nM on mouse NLRP3, above 1000 nM against human NLRP3 [1], below 300 nM on human NLRP3 [2] (setting [3]) and 150 nM at human NLRP3 [2] (setting [4]).
Regarding `CC1(C)C(=O)N(CC(=O)NCCCC(=O)O)c2c(O)cc(Br)cc21` [Compound 16, 4-(2-(5-bromo-7-hydroxy-3,3-dimethyl-2-oxoindolin-1-yl)acetamido)butanoic acid], the half-inhibitory concentration (IC50) is 500 to 1000 nM at mouse NLRP3, 500 to 1000 nM at human NLRP3 [1] and below 300 nM at human NLRP3 [2] (setting [3]).
Turning to `CC1(C)C(=O)N(CC(=O)NCCCC(=O)O)c2ccc(C3CC3)c(F)c21` [Compound 56, 4-(2-(5-cyclopropyl-4-fluoro-3,3-dimethyl-2-oxoindolin-1-yl)acetamido)butanoic acid], the IC50 was below 300 nM at mouse NLRP3, 500 to 1000 nM on human NLRP3 [1], below 300 nM at human NLRP3 [2] (setting [3]) and 46 nM against human NLRP3 [2] (setting [4]).
For the molecule `CC1(C)C(=O)N(CC(=O)NCCCC(=O)O)c2c(F)cc(C3CC3)c(F)c21` [Compound 57, 4-(2-(5-cyclopropyl-4,7-difluoro-3,3-dimethyl-2-oxoindolin-1-yl)acetamido)butanoic acid], the 50% inhibitory concentration (IC50) at mouse NLRP3 was below 300 nM; at human NLRP3 [1], 300 to 500 nM; at human NLRP3 [2] (setting [3]), below 300 nM; against human NLRP3 [2] (setting [4]), 59 nM.
As to `C[C@@H](CCC(=O)O)NC(=O)CN1C(=O)C(C)(C)c2c(F)c(C3CC3)cc(F)c21` [Compound 59A, (S)-4-(2-(5-cyclopropyl-4,7-difluoro-3,3-dimethyl-2-oxoindolin-1-yl)acetamido)pentanoic acid], the concentration for half-maximal inhibition (IC50) was below 300 nM at mouse NLRP3, 300 to 500 nM on human NLRP3 [1] and below 300 nM on human NLRP3 [2] (setting [3]).
As for `C[C@@H](CNC(=O)CN1C(=O)C(C)(C)c2c(F)c(C3CC3)cc(F)c21)CC(=O)O` [Compound 61A, (R)-4-(2-(5-cyclopropyl-4,7-difluoro-3,3-dimethyl-2-oxoindolin-1-yl)acetamido)-3-methylbutanoic acid], the IC50 was below 300 nM on mouse NLRP3 and 300 to 500 nM at human NLRP3 [1].
For `CC1(C)C(=O)N(CC(=O)NC[C@H](F)CC(=O)O)c2c(F)cc(C3CC3)c(F)c21` [Compound 62A, (R)-4-(2-(5-cyclopropyl-4,7-difluoro-3,3-dimethyl-2-oxoindolin-1-yl)acetamido)-3-fluorobutanoic acid], in that order: below 300 nM and 300 to 500 nM.
For `CC1(C)C(=O)N(CC(=O)NC[C@H](F)CC(=O)O)c2ccc(C3CC3)c(F)c21` [Compound 63A, (R)-4-(2-(5-cyclopropyl-4-fluoro-3,3-dimethyl-2-oxoindolin-1-yl)acetamido)-3-fluorobutanoic acid], the IC50 against mouse NLRP3 is below 300 nM; against human NLRP3 [1] it was 500 to 1000 nM; on human NLRP3 [2] (setting [3]), below 300 nM.
Consider `CC1(C)C(=O)N(CC(=O)NC[C@H](F)CC(=O)O)c2c(F)cc(C(F)(F)F)c(F)c21` [Compound 64A, (R)-4-(2-(4,7-difluoro-3,3-dimethyl-2-oxo-5-(trifluoromethyl)indolin-1-yl)acetamido)-3-fluorobutanoic acid], for which the IC50 was below 300 nM at mouse NLRP3, 500 to 1000 nM against human NLRP3 [1] and below 300 nM on human NLRP3 [2] (setting [3]).
As to `CC1(C)C(=O)N(CC(=O)NCCCc2nnn[nH]2)c2c(F)cc(C3CC3)c(F)c21` [Compound 65, N-(3-(1H-tetrazol-5-yl)propyl)-2-(5-cyclopropyl-4,7-difluoro-3,3-dimethyl-2-oxoindolin-1-yl)acetamide], the concentration for half-maximal inhibition (IC50) against mouse NLRP3 was below 300 nM; on human NLRP3 [1], 500 to 1000 nM; against human NLRP3 [2] (setting [3]), below 300 nM; against human NLRP3 [2] (setting [4]), 15 nM.
Consider `CC1(C)C(=O)N(CC(=O)NCCCC(=O)O)c2c(F)cc(C3CC3)cc21` [Compound 66, 4-(2-(5-cyclopropyl-7-fluoro-3,3-dimethyl-2-oxoindolin-1-yl)acetamido)butanoic acid], for which the half-maximal inhibitory concentration (IC50) is below 300 nM against mouse NLRP3, below 300 nM at human NLRP3 [1], below 300 nM on human NLRP3 [2] (setting [3]) and 24 nM on human NLRP3 [2] (setting [4]).

Source of the values: patent publication US20240368131A1, “OXOINDOLINYL AMIDE DERIVATIVES FOR INHIBITING NLRP3 AND USES THEREOF” (VENTUS THERAPEUTICS U.S. INC., priority 2022, published 2024).
